Laboratory results: patent US8241680B2, “Nutraceutical product containing anatabine and yerba maté” (priority 2010, dated 2012)

Key:
[1] = Stability analysis of Formula I (purity by HPLC on storage); format: physicochemical
Text: Several batches of Formula I produced by reacting benzophenoneimine with aminomethylpyridine in the absence of benzene were stored refrigerated and also at room temperature.

[2] = Stability analysis of anatabine base with and without BHT as a preservative; format: physicochemical
Description: See, for example, Tables 3 and 4 in Examples 4 and 5, respectively. Purity of the anatabine may be retained for extended periods of time. […] Further, anatabine remains stable when stored at a variety of temperatures. For example, the anatabine retains the indicated purity when stored at −20° C. to −10° C., −20° C. to 0° C., −10° C. to 0° C., 0° C. to 4° C., 2° C. to 8° C., 5° C. to 10° C., 10° C. to 15° C., 15° C. to 25° C., or 25° C. to 28° C. Stability is determined by any suitable art-recognized method. For example, anatabine stability may be monitored by high performance liquid chromatography (HPLC), liquid chromatography-mass spectroscopy (LC-MS), or nuclear magnetic resonance (NMR).
Anatabine base stability was analyzed with and without BHT (3,5-di-tert-butyl-4-hydroxytoluene). The initial purity of BHT-free anatabine base was 94.95%. The initial purity of anatabine base with BHT was 94.87%.

Structure (SMILES): c1ccc(C(=NCc2cccnc2)c2ccccc2)cc1 [Formula I, benzylhydrylidene-pyridin-3-ylmethyl-amine]
- Purity (%) (stored at 2-8° C.) ([1]; day 1, 2-8° C.): 88.61%
- Purity (%) (stored at 25-28° C.) ([1]; day 1, 25-28° C.): 88.93%
- Purity (%) (stored at 2-8° C.) ([1]; day 2, 2-8° C.): 88.83%
- Purity (%) (stored at 25-28° C.) ([1]; day 2, 25-28° C.): 85.49%
- Purity (%) (stored at 2-8° C.) ([1]; day 3, 2-8° C.): 88.30%
- Purity (%) (stored at 25-28° C.) ([1]; day 3, 25-28° C.): 88.02%
- Purity (%) (stored at 2-8° C.) ([1]; day 6, 2-8° C.): 88.83%
- Purity (%) (stored at 25-28° C.) ([1]; day 6, 25-28° C.): 86.62%
- Purity (%) (stored at 2-8° C.) ([1]; day 12, 2-8° C.): 88.75%
- Purity (%) (stored at 25-28° C.) ([1]; day 12, 25-28° C.): 87.47%
- Purity (%) (stored at 2-8° C.) ([1]; day 18, 2-8° C.): 88.46%
- Purity (%) (stored at 25-28° C.) ([1]; day 18, 25-28° C.): 87.25%
- Purity on storage ([1]; refrigerated): constant
- Deviation of purity on storage ([1]; room temperature): 1-2%

Structure (SMILES): C1=CCC(c2cccnc2)NC1 (stereo not shown) [anatabine base, anatabine]
- Initial purity ([2]; BHT-free): 94.95%
- Purity (%) (with BHT) ([2]; day 1, 2-8° C., with BHT): 93.26%
- Purity (%) (without BHT) ([2]; day 1, 2-8° C.): 94.44%
- Purity (%) (with BHT) ([2]; day 1, 25-28° C., with BHT): 93.27%
- Purity (%) (without BHT) ([2]; day 1, 25-28° C.): 89.63%
- Purity (%) (with BHT) ([2]; day 1, −20° C., with BHT): 94.26%
- Purity (%) (without BHT) ([2]; day 1, −20° C.): 93.90%
- Purity (%) (with BHT) ([2]; day 2, 2-8° C., with BHT): 94.83%
- Purity (%) (without BHT) ([2]; day 2, 2-8° C.): 94.05%
- Purity (%) (with BHT) ([2]; day 2, 25-28° C., with BHT): 92.73%
- Purity (%) (without BHT) ([2]; day 2, 25-28° C.): 87.59%
- Purity (%) (with BHT) ([2]; day 2, −20° C., with BHT): 94.73%
- Purity (%) (without BHT) ([2]; day 2, −20° C.): 94.62%
- Purity (%) (with BHT) ([2]; day 3, 2-8° C., with BHT): 94.26%
- Purity (%) (without BHT) ([2]; day 3, 2-8° C.): 91.65%
- Purity (%) (with BHT) ([2]; day 3, 25-28° C., with BHT): 87.44%
- Purity (%) (without BHT) ([2]; day 3, 25-28° C.): 80.74%
- Purity (%) (with BHT) ([2]; day 3, −20° C., with BHT): 94.62%
- Purity (%) (without BHT) ([2]; day 3, −20° C.): 93.87%
- Purity (%) (with BHT) ([2]; day 12, 2-8° C., with BHT): 94.18%
- Purity (%) (without BHT) ([2]; day 12, 2-8° C.): 90.12%
- Purity (%) (with BHT) ([2]; day 12, 25-28° C., with BHT): 85.10%
- Purity (%) (without BHT) ([2]; day 12, 25-28° C.): 79.59%
- Purity (%) (with BHT) ([2]; day 12, −20° C., with BHT): 94.74%
- Purity (%) (without BHT) ([2]; day 12, −20° C.): 94.01%
- Initial purity ([2]; with BHT): 94.87%
